# Test results: PubChem BioAssay AID1421 (Emory University Molecular Libraries Screening Center, 2008)
# Calls of active or inactive are those of the source. How the calls were made is not given here.
# Molecular target: Prostaglandin E2 receptor EP2 subtype (Homo sapiens) (UniProt P43116)
# Assay: compounds shifting PGE2 potency at EP2 – cell-based, human EP2, PGE2 EC50 shift, dose response (AID 1421)
# Details: EP2-expressing cells, PGE2 EC50 shift by compound
# Sequence of Prostaglandin E2 receptor EP2 subtype (Homo sapiens) (P43116 whole entry, looked up): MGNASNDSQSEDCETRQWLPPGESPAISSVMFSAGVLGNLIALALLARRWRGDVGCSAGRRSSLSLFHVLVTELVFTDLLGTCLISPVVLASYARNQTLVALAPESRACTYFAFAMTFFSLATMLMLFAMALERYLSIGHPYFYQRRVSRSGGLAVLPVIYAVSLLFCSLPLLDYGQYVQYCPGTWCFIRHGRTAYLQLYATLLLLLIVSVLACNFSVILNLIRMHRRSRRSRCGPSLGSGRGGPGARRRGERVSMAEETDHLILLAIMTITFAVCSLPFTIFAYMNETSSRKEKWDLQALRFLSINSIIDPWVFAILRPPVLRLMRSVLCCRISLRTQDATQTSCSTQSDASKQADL
row,SMILES,outcome
1,Cc1ccc(C)c(NC(=S)N(Cc2ccco2)C(C)c2cccs2)c1 (configuration not stated),active
2,COc1ccccc1NC(=O)c1c(C)oc2c1CCCC2,active
3,COc1ccc2c(c1)c(=O)c(Br)c(C)n2Cc1ccccc1,active
4,Cn1c(=O)c(NC2CCCCC2)c2c3c(cccc31)C(=O)c1ccccc1-2,active
5,Cc1ccc(O)c(C2=Nc3ccccc3N=C(c3cccs3)C2)c1,active
6,COC(=O)c1c(NC(=O)C2CC2)sc2c1CCCC2,active
7,CCOC(=O)c1c(NC(=O)c2ccoc2C)sc(C)c1C,active
8,CCOC(=O)c1c(C)[nH]c(C=O)c1Cc1cccc(Cl)c1,active
9,CCC1COC(c2cccn2Cc2ccc(Cl)cc2)=N1 (configuration not stated),active
10,CC1CCCC(C)N1C(=O)c1ccccc1Nc1ccc(SC(F)F)cc1 (configuration not stated),active
11,O=C(Nc1ccccc1N1CCN(c2ccccc2)CC1)C12CC3CC(CC(C3)C1)C2,active
12,Cc1noc(C)c1CSc1ncnc2sc3c(c12)CCC3,active
13,N#CC1=C(N)S[C@H](C(=O)C23CC4CC(CC(C4)C2)C3)[C@H]1c1ccncc1,active
14,C/C(CCc1oc2ccc(Cl)cc2c1-c1ccc(C)o1)=N\O,active
15,O=C(O)COc1ccc(/C=C/c2ccc3cccc([N+](=O)[O-])c3n2)cc1,active

# Same assay, conditions: EP2-expressing cells, PGE2 EC50 shift by compound; measured here: PGE2 EC50 at 6.7 uM compound
row,SMILES,PGE2 EC50 with compound [nM]
1,COc1ccc(-n2c(COc3cccc4ccccc34)nnc2SCC(=O)NCc2ccco2)cc1,1.07
2,CCOC(=O)c1ccccc1NC(=O)C(C)Oc1ccccc1 (configuration not stated),1.35
3,CN(Cc1ccccc1)c1nc2c(c(=O)[nH]c(=O)n2C)n1Cc1ccccc1Cl,1.05
4,CCOc1ccc(OCC)c(NC(=O)CN2CCN(c3ccc(C)cc3C)CC2)c1,0.88
5,CCCCC(=O)Nc1sc2c(c1C(=O)OCC)CCC(C=O)=C2Cl,0.91
6,O=C(N/N=C/c1ccc[nH]1)c1ccccc1OCc1ccccc1Cl,2.65
7,CC(C)Oc1ccc(Cc2n[nH]c(=S)n2Cc2ccccc2)cc1Cl,1.25
8,CC1CCN(c2nc(-c3ccncc3)nc3ccccc23)CC1,1
9,CCCCc1ccc(-n2c(Cc3cccs3)n[nH]c2=S)cc1,0.8
10,N#CCSc1nc2sc3c(c2c(=O)n1C1CCCCC1)CCCC3,0.76
11,Cc1ccc(C)c(NC(=S)N(Cc2ccco2)C(C)c2cccs2)c1 (configuration not stated),0.7
12,O=C(/C(=C/O)N=Nc1ccccc1)c1ccc(Cl)cc1,1.12
13,CC1Cc2ccccc2N1C(=O)CSc1nnc(Cc2ccccc2)n1CCc1ccccc1 (configuration not stated),1.14
14,CCCOC(=O)c1ccc(NC(=O)c2cn(CC)c3nc(C)ccc3c2=O)cc1,1.57
15,COc1ccc(-c2c(C(C)=O)c(C)nc3sc4c(c23)NC(c2ccccc2)NC4=O)cc1 (configuration not stated),1.87
16,COC(=O)c1c(NC(=O)Cc2cccs2)sc2c1CCCC2,1.02
17,c1ccc(C2=Nc3ccccc3NC(c3ccccc3)C2)cc1 (configuration not stated),2.58
18,COc1ccc(C(=O)N2N=C(c3ccccc3)CC2(O)C(F)(F)F)cc1 (configuration not stated),2.7
19,CC(Sc1nnc(-c2cccs2)n1Cc1ccccc1)C(=O)NCc1ccc2c(c1)OCO2 (configuration not stated),0.62
20,Cc1ccccc1-n1c(=O)[nH]c(=O)c2c(N)c(C(=O)c3ccc(Cl)cc3)sc21,0.86
21,CN(N=O)c1ccc(O)c(O)c1,1.26
22,c1ccc(CCc2ccccc2-c2nc(-c3ccccn3)no2)cc1,0.32
23,c1ccc(-c2noc(CN3CCN(C(c4ccccc4)c4ccccc4)CC3)n2)cc1,0.73
24,Cc1cccc2cc(CN(Cc3cccs3)C(c3nnnn3C3CCCC3)C(C)C)c(=O)[nH]c12 (configuration not stated),0.99
25,Cc1nccc2[nH]c(=O)c(C(=O)NC3CCCCC3C)cc12 (configuration not stated),1.44
26,CC1=CC(C)(C)N(S(=O)(=O)c2ccc(F)cc2)c2ccc(C)cc21,0.8

row,SMILES,PGE2 EC50 with compound [nM]
1,Cc1nc(N2N=C(c3ccc(Cl)cc3)CC2c2ccco2)sc1C(=O)N(C)C (configuration not stated),2.73
2,CCn1nnnc1SCC(=O)Nc1cccc(C)n1,1.44
3,COc1ccccc1NC(=O)c1c(C)oc2c1CCCC2,1.19
4,Cc1cccc(Oc2nc(-c3ccccc3)cc(C)c2S(C)(=O)=O)c1C,2.56
5,COc1ccc(-c2nc3ccccc3n2Cc2ccccc2)cc1,1.05
6,Cc1cccc(N=N/C(=C\O)C(=O)c2ccc(Br)cc2)c1,0.31
7,Cc1ccc(NCc2n[nH]c(=S)n2Cc2ccccc2)cc1Cl,1.2
8,CCCc1cc(-c2nc(N)ncc2-c2ccc3c(c2)OCCCO3)c(O)cc1OC,0.86
9,COc1ccc2c(c1)c(=O)c(Br)c(C)n2Cc1ccccc1,0.83
10,COc1ccc(C(=O)O)cc1NC(=S)NC(=O)c1ccc(-c2ccc(Cl)cc2)o1,0.36
11,COc1cccc(N=c2oc3c(C)ncc(CO)c3cc2C(=O)Nc2ccccc2OC)c1,1.48
12,Cc1cccc(/N=C/c2c(O)ccc3oc4c(c23)CCCC4)n1,1.04
13,CSc1nnc2c3ccccc3c3ccccc3c2n1,1
14,Cc1ccc(C(=O)N2N=C(c3ccccc3)CC2(O)C(F)(F)F)o1 (configuration not stated),1.62
15,NC(=O)COc1ccc(C23CC4CC(CC(C4)C2)C3)cc1,2.56
16,Cn1c(=O)c(NC2CCCCC2)c2c3c(cccc31)C(=O)c1ccccc1-2,0.55
17,O=C(c1ccc(Cl)cc1)c1oc2ccccc2c1CS(=O)c1ccccc1 (configuration not stated),0.87
18,Cc1ccc(O)c(C2=Nc3ccccc3N=C(c3cccs3)C2)c1,1.17
19,COC(=O)c1ccc(-n2nc(C(F)(F)F)c3c2-c2ccoc2CC3)cc1,0.79
20,CCN(c1cccc(C)c1)S(=O)(=O)c1ccc2c3c(cccc13)C(=O)N2,0.53
21,CCOC1(OCC)C(c2ccc(N)cc2)C(C#N)(C#N)C1(OCC)OCC (configuration not stated),0.31
22,COc1ccc(C2=Nn3c(nnc3-c3ccccc3)SC2)cc1OC,2.63
23,CC(CC(=O)O)(CC(=O)O)C(=O)O,0.87
24,Cc1sc(NC(=O)c2cccs2)c(C(=O)OC(C)C)c1C,2.6
25,COC(=O)c1c(NC(=O)C2CC2)sc2c1CCCC2,0.95
26,CCCn1c(=O)[nH]c(=O)c2c1nc(-c1ccccc1OC(F)F)n2CCOC,1.08

row,SMILES,PGE2 EC50 with compound [nM]
1,CCN1CCN(c2c(Cl)cccc2NC(=O)c2ccc(Br)o2)CC1,2.53
2,O=C(COc1ccccc1)Nc1cc(C(F)(F)F)ccc1N1CCCC1,0.91
3,CCOC(=O)c1c(NC(=O)c2ccoc2C)sc(C)c1C,0.94
4,CC(C)n1c2ccccc2c2nnc(SCC(=O)Nc3ccccc3C(=O)O)nc21,2.65
5,CCOC(=O)c1c(NC(=O)Cc2cccs2)sc(C)c1C,0.87
6,CCOC(=O)c1c(C)[nH]c(C=O)c1Cc1cccc(Cl)c1,0.98
7,N#Cc1c(NC(=O)CSc2n[nH]c(Cc3ccccc3)n2)oc(-c2ccccc2)c1-c1ccccc1,1.4
8,COc1c(O)cc2oc3cc(O)c(CC=C(C)C)c(O)c3c(=O)c2c1CC=C(C)C,2.62
9,O=c1[nH]c(CSc2ncc(-c3ccc(F)cc3)n2Cc2ccco2)nc2ccccc12,0.71
10,CCC1COC(c2cccn2Cc2ccc(Cl)cc2)=N1 (configuration not stated),1.27
11,COc1cc(-c2noc(-c3cccc(Cl)c3)n2)cc(OC)c1OC,1.11
12,COC(=O)c1c(C)nc2ccccc2c1-c1ccccc1,1.54
13,COc1ccc(OCC(=O)NC(=S)Nc2ccc3c4c(cccc24)CC3)cc1,2.85
14,Nc1ccccc1CCCC(=O)O,0.98
15,O=c1[nH]c2ccc(Br)cc2c(-c2ccccc2)c1N1CCOCC1,1.07
16,CCCSc1nc(N2CCOCC2)c2c(c1C#N)CCCC2,1.06
17,CC1CCCC(C)N1C(=O)c1ccccc1Nc1ccc(SC(F)F)cc1 (configuration not stated),1.05
18,O=C(Nc1ccccc1N1CCN(c2ccccc2)CC1)C12CC3CC(CC(C3)C1)C2,2.52
19,CCOC(=O)c1c(NC(=O)c2cccs2)sc2c1CCCC2,0.81
20,NS(=O)(=O)c1ccc(NCc2cnc3ccccc3n2)cc1,0.64
21,O=c1[nH]c(N/N=C/c2ccccc2)nc2ccccc12,0.74
22,O=C1C2C3c4ccccc4C(c4ccccc43)C2c2nc3ccccc3n21 (configuration not stated),1.4
23,Cc1noc(C)c1CSc1ncnc2sc3c(c12)CCC3,0.87
24,S=c1[nH]nc(C23CC4CC(CC(C4)C2)C3)n1Cc1ccco1,2.45
25,O=C1/C(=C/c2cccnc2)SC(=NCc2ccccc2)N1Cc1ccccc1,1.29
26,CCOC(=O)c1c(NC(=O)CSC(=S)N(C)C)sc(C)c1C,0.86

row,SMILES,PGE2 EC50 with compound [nM]
1,S=c1[nH]nc(CSc2nc3ccccc3s2)n1Cc1ccccc1,0.72
2,Cc1ccc(OCc2n[nH]c(=S)n2Cc2ccccc2)cc1,1.17
3,COc1ccccc1C(=O)NC(=S)Nc1cc(C(=O)O)ccc1C,1.18
4,COc1ccc(-c2nnc(N3CCC(C)CC3)c3ccccc23)cc1,1.15
5,Clc1ccc(-c2nn3c(-c4ccccc4)nnc3s2)cc1,0.93
6,COc1ccc(C(=O)NCCCN2CCOCC2)cc1OC,0.99
7,CCC(C)(C)n1nnnc1C(c1ccncc1)N1CCC(Cc2ccccc2)CC1 (configuration not stated),1.85
8,Fc1ccc(Sc2nc(-c3ccccc3)nnc2C(F)(F)F)cc1,0.94
9,CCOC(=O)c1c(NC(=O)c2ccncc2)sc(C)c1C,1
10,CN(C)c1nc(-c2ccccc2)c2cnn(Cc3ccccc3)c2n1,1.12
11,Cc1nc2ccccc2c(-c2ccccc2)c1C(=O)c1ccccc1,2.55
12,O=C(O)c1ccc(N2C(=O)/C(=C/C=C/c3ccccc3)SC2=S)cc1,2.89
13,N#CC1=C(N)S[C@H](C(=O)C23CC4CC(CC(C4)C2)C3)[C@H]1c1ccncc1,0.96
14,O=C(Nc1ccccc1N1CCCC1)c1cc2ccccc2o1,1.46
15,CCCCOP(=O)(OCCCC)C(Nc1ccccc1)c1ccc2c(c1)OCO2 (configuration not stated),0.8
16,c1ccc(C2Nc3ccccc3Oc3ccccc32)cc1 (configuration not stated),0.85
17,Cc1ccc(S(=O)(=O)n2c3ccc(F)cc3c3nc(C)sc32)cc1,0.84
18,C/C(CCc1oc2ccc(Cl)cc2c1-c1ccc(C)o1)=N\O,0.81
19,O=S(=O)(c1ccccc1)N(Cc1nc(-c2ccccc2)no1)C1CCCCC1,1.26
20,Cc1cccc(Cn2c(=O)n(Cc3ccco3)c(=O)c3ccccc32)c1,1.13
21,CC(C)Cc1nc(SCc2cccnc2)c2c(=O)n(C)c(=O)n(C)c2n1,0.67
22,COc1ccc(-c2nc3c(c(=O)[nH]c(=O)n3Cc3ccccc3)n2Cc2ccccc2)cc1,0.55
23,CCc1cc2cc3c(cc2nc1SCC(=O)OC(C)C)OCO3,0.7
24,O=C(O)COc1ccc(/C=C/c2ccc3cccc([N+](=O)[O-])c3n2)cc1,2.11
